Measured values: US9499550B2 (BRISTOL-MYERS SQUIBB COMPANY, priority 2012, dated 2016)
Read-outs that look alike come from different tables or passages of the source.

Legend:
[1] = test system: HCV genotype 1a (H77 strain) replicon in HUH-7 cells; assay: HCV replicon luciferase reporter assay, genotype 1a; format: cell-based; conditions: Hepatitis C virus, Huh-7, 72 h, 3 days incubation, read-out: LE_1a (EC50, range)
Summary of the method: (§1)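 Replicon inhibition for both genotypes was measured as Renilla luciferase signal (EnduRen, 7.5 μM final, 2 h) after 3-day, 37° C exposure of replicon-bearing HUH-7 cells in 4% FCS DMEM, 0.5% DMSO. The 1b construct carries S1179I; the 1a H77 construct carries P1496L and S2204I. Twenty-point, 3-fold dilutions were fitted four-parametrically for EC50, and CC50 was taken from multiplexed Cell Titer-Blue.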

[2] = test system: HCV genotype 1b (Con1) replicon in HUH-7 cells; assay: HCV replicon luciferase reporter assay, genotype 1b; format: cell-based; conditions: Hepatitis C virus, Huh-7, 72 h, 3 days incubation, read-out: LE_1b (EC50, range)
Summary of the method: as §1

[3] = HCV genotype 1a replicon luciferase assay, range class
[4] = HCV genotype 1b replicon luciferase assay, range class
[5] = HCV genotype 1a replicon luciferase
[6] = HCV genotype 1b replicon luciferase

SMILES	EC50 [1, 3] [nM]	EC50 [2, 4] [nM]	EC50 [1, 5] [nM]	EC50 [2, 6] [nM]	further results
COc1cc(F)cc2c(O[C@@H]3C[C@H]4C(=O)N[C@]5(C(=O)NS(=O)(=O)C6CC6)C[C@H]5/C=C\CC[C@@H](C)C[C@@H](C)[C@H](NC(=O)OC(C)(C)C(F)(F)F)C(=O)N4C3)nccc12 [Compound 3166, 1,1,1-trifluoro-2-methylpropan-2-yl((2R,6S,7R,9R,13aS,14aR,16aS,Z)-14a-((cyclopropylsulfonyl)carbamoyl)-2-((7-fluoro-5-methoxyisoquinolin-1-yl)oxy)-7,9-dimethyl-5,16-dioxo-1,2,3,5,6,7,8,9,10,11,13a,14,14a,15,16,16a-hexadecahydrocyclopropa[e]pyrrolo[1,2-a][1,4]diazacyclopentadecin-6-yl)carbamate]	< 5.46	< 5.46			
COc1ccc2c(O[C@@H]3C[C@H]4C(=O)N[C@]5(C(=O)NS(=O)(=O)C6(C)CC6)C[C@H]5/C=C\CC[C@H](C)C[C@@H](C)[C@H](NC(=O)O[C@H](C)C(F)(F)F)C(=O)N4C3)nc(-c3ccc(OC(C)C)c(F)c3)cc2c1 [Compound 3075, (R)-1,1,1-trifluoropropan-2-yl ((2R,6S,7R,9S,13aS,14aR,16aS,Z)-2-((3-(3-fluoro-4-isopropoxyphenyl)-6-methoxyisoquinolin-1-yl)oxy)-7,9-dimethyl-14a-(((1-methylcyclopropyl)sulfonyl)carbamoyl)-5,16-dioxo-1,2,3,5,6,7,8,9,10,11,13a,14,14a,15,16,16a-hexadecahydrocyclopropa[e]pyrrolo[1,2-a][1,4]diazacyclopentadecin-6-yl)carbamate]	4.82 to 103	< 5.46			
COc1cnc(O[C@@H]2C[C@H]3C(=O)N[C@]4(C(=O)NS(=O)(=O)C5(CF)CC5)C[C@H]4/C=C\CC[C@H](C)C[C@@H](C)[C@H](NC(=O)OC4(C)CCOC4)C(=O)N3C2)c2ccccc12 (stereo partly drawn) [Compound 1063, 3-methyltetrahydrofuran-3-yl ((2R,6S,7R,9S,13aS,14aR,16aS,Z)-14a-(((1-(fluoromethyl)cyclopropyl)sulfonyl)carbamoyl)-2-((4-methoxyisoquinolin-1-yl)oxy)-7,9-dimethyl-5,16-dioxo-1,2,3,5,6,7,8,9,10,11,13a,14,14a,15,16,16a-hexadecahydrocyclopropa[e]pyrrolo[1,2-a][1,4]diazacyclopentadecin-6-yl)carbamate]	4.82 to 103	< 5.46			
COc1cc2ccnc(O[C@@H]3C[C@H]4C(=O)N[C@]5(C(=O)NS(=O)(=O)C6(C)CC6)C[C@H]5/C=C\CC[C@@H](C)C[C@@H](C)[C@H](NC(=O)OC(C)(C)C(F)(F)F)C(=O)N4C3)c2cc1F [Compound 4039, 1,1-trifluoro-2-methylpropan-2-yl(2R,6S,7R,9R,13aS,14aR,16aS,Z)-2-(7-fluoro-6-methoxyisoquinolin-1-yloxy)-7,9-dimethyl-14a-(1-methylcyclopropylsulfonylcarbamoyl)-5,16-dioxo-1,2,3,5,6,7,8,9,10,11,13a,14,14a,15,16,16a-hexadecahydrocyclopropa[e]pyrrolo[1,2-a][1,4]diazacyclopentadecin-6-ylcarbamate]			< 5.46	< 5.46	
COc1cc2ccccc2c(O[C@@H]2C[C@H]3C(=O)N[C@]4(C(=O)NS(=O)(=O)C5(CF)CC5)C[C@H]4/C=C\CC[C@@H](C)C[C@@H](C)[C@H](NC(=O)OC(C)(C)C(F)(F)F)C(=O)N3C2)n1 [Compound 6016]					EC50 ([1]; GETYPE1A, HCV genotype 1a replicon luciferase): < 5.46 nM; EC50 ([2]; GETYPE1B, HCV genotype 1b replicon luciferase): < 5.46 nM
COc1cc2ccnc(O[C@@H]3C[C@H]4C(=O)N[C@]5(C(=O)NS(=O)(=O)C6(F)CC6)C[C@H]5/C=C\CC[C@@H](C)C[C@@H](C)[C@H](NC(=O)OCC(C)(C)C)C(=O)N4C3)c2cc1F [Compound 4051, neopentyl (2R,6S,7R,9R,13aS,14aR,16aS,Z)-2-(7-fluoro-6-methoxyisoquinolin-1-yloxy)-14a-(1-fluorocyclopropylsulfonylcarbamoyl)-7,9-dimethyl-5,16-dioxo-1,2,3,5,6,7,8,9,10,11,13a,14,14a,15,16,16a-hexadecahydrocyclopropa[e]pyrrolo[1,2-a][1,4]diazacyclopentadecin-6-ylcarbamate]			< 5.46	< 5.46	
